From ChEMBL document CHEMBL1201862, “PubChem BioAssay data set” (2004)
Calls of active or inactive are those of the source.

Experiments:
[1] = target: T1, Short transient receptor potential channel 4 (Mus musculus, UniProt Q9QUQ5); experiment: block of DAMGO-driven TRPC4 calcium entry – cell-based, HEK293 TRPC4/mu-opioid, Fluo-4 calcium, dose response (AID 434942); format: functional;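 further: potency of inhibitors blocking the TRPC4 calcium response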
T1 sequence (Q9QUQ5 whole entry): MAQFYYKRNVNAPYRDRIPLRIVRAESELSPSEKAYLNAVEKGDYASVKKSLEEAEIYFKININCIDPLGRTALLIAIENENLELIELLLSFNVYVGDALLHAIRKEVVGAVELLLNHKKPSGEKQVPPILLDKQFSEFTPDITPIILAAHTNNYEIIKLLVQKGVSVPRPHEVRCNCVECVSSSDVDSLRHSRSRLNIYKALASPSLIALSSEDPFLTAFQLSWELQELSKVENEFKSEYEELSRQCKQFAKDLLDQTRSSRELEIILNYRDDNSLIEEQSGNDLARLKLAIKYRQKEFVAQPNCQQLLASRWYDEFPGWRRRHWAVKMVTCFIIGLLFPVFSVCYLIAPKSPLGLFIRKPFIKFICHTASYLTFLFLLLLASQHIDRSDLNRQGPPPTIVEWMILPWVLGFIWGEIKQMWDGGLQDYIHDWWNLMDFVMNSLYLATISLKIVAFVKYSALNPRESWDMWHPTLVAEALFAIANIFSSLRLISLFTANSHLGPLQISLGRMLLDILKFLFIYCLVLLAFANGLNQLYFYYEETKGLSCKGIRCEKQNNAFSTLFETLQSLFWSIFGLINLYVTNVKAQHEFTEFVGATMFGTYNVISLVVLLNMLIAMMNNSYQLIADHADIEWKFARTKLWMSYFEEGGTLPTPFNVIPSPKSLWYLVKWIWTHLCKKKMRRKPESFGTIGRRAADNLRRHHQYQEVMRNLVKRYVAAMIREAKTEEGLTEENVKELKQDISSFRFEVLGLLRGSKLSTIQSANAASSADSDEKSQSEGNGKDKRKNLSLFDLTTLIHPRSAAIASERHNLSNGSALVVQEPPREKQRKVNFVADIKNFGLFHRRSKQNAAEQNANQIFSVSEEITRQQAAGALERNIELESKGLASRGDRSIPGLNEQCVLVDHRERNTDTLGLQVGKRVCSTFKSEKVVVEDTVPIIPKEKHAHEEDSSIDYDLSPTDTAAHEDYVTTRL

[2] = viability of uninfected HEp-2 cells – cell-based, HTS, cytotoxicity control for RSV inhibitor project, dose response (AID 2410); format: functional; conditions: human respiratory syncytial virus
[3] = Trypanosoma cruzi growth suppression in host cells – NIH3T3 host cells, beta-gal luminescence, confirmation (AID 2044); format: functional, cell-based;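 further: intracellular parasites grown in NIH/3T3 mouse fibroblasts as host cells; luminescent beta-galactosidase reporter signal from transgenic T. cruzi replicating inside host cells; inhibitors lower the luminescence signal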
cells [4] = experiment: cells
[5] = NIH3T3 cell viability loss – ATP luminescence, mouse fibroblasts, counter-screen, dose response (AID 2010); format: functional, cell-based;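 further: cells exposed to compound for about 90 hours before reading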
[6] = target: DNA dC->dU-editing enzyme APOBEC-3A (Homo sapiens, UniProt P31941); experiment: A3A deaminase inhibition for selectivity – biochemical, dose response (AID 504722); format: functional
DNA dC->dU-editing enzyme APOBEC-3A, sequence (P31941 whole entry): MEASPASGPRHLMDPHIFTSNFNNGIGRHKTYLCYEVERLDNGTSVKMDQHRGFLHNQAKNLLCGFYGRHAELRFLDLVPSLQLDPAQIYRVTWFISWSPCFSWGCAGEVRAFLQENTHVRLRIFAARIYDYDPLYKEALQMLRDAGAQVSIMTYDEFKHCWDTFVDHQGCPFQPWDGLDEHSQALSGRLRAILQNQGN

[7] = target: DNA dC->dU-editing enzyme APOBEC-3G (Homo sapiens, UniProt Q9HC16); experiment: Dose Response confirmation of small molecule APOBEC3G DNA Deaminase Inhibitors via a fluorescence-based single-stranded DNA deaminase assay. [Related pubchem assays (depositor defined):AID493012, AID493028]; format: functional
DNA dC->dU-editing enzyme APOBEC-3G, sequence (Q9HC16 whole entry): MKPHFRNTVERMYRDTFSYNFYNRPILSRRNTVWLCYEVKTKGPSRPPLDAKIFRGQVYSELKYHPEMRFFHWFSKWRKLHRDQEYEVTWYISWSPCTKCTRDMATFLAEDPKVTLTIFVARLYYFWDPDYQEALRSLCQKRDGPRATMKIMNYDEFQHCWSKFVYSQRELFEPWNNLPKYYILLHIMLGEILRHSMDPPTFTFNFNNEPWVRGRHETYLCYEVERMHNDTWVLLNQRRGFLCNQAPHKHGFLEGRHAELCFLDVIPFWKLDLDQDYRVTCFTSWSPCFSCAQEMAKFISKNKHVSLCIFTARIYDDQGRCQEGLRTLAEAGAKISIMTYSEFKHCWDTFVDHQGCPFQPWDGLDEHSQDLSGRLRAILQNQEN

[8] = M. tuberculosis H37Rv growth inhibitors, H37Rv strain (AID 1626); format: functional
SUMO-activating enzyme = SUMO-activating enzyme (Homo sapiens, UniProt Q9UBT2); experiment: blockers of UBC9-mediated SUMO conjugation – biochemical, AlphaScreen, SUMOylation inhibitor project, confirmation (AID 2018); format: functional
SUMO-activating enzyme, sequence (Q9UBE0 whole entry): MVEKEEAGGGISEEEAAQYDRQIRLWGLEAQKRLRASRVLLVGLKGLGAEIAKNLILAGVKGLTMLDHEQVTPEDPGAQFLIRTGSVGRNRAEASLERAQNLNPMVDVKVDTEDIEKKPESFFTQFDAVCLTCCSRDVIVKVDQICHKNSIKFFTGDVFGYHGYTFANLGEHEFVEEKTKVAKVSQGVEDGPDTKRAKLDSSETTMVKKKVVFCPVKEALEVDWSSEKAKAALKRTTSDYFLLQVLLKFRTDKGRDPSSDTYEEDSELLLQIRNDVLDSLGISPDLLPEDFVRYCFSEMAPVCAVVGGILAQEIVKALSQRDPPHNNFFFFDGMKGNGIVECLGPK
SUMO-activating enzyme, sequence (Q9UBT2 whole entry): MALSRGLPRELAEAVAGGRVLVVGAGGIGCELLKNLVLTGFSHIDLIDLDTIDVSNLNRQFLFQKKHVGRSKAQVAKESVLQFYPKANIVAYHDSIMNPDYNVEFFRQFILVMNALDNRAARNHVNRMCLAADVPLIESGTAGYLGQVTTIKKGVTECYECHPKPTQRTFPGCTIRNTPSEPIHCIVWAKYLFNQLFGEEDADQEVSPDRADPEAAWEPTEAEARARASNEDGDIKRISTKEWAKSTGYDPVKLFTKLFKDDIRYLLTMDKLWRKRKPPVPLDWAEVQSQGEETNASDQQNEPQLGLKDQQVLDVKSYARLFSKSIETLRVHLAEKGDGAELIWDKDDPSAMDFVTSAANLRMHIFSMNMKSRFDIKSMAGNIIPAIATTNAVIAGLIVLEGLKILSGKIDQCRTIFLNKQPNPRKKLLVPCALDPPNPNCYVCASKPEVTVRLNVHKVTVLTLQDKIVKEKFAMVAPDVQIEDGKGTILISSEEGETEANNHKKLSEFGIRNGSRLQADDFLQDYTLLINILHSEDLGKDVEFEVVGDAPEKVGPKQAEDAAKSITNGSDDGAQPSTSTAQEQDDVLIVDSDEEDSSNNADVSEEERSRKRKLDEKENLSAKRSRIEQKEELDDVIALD

Trypsin = Trypsin (Sus scrofa, UniProt P00761); experiment: trypsin protease activity blockade – biochemical, quenched peptide fluorescence, cherry-pick, selectivity assay for Rce1 protease inhibitor project, dose response (AID 488789)
Trypsin, sequence (P00761 whole entry): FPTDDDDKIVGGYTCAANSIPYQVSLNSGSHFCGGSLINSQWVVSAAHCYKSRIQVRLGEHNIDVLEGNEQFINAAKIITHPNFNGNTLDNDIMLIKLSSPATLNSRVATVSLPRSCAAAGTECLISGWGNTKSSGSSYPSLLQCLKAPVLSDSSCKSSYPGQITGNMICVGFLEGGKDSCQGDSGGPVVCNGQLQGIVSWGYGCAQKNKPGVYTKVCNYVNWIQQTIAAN

CAAX prenyl protease 2 = target: T2, CAAX prenyl protease 2 (Saccharomyces cerevisiae S288c, UniProt Q03530); format: biochemical
T2 sequence (Q03530 whole entry): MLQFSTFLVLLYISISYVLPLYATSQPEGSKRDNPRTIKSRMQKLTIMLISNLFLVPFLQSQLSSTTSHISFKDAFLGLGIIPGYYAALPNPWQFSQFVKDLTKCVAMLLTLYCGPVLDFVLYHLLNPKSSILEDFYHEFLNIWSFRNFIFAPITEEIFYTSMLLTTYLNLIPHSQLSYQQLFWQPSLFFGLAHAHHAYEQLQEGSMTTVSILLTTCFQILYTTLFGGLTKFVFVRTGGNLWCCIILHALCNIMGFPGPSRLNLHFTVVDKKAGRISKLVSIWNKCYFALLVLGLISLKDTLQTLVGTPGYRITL

Estrogen receptor = target: T3, Estrogen receptor (Homo sapiens, UniProt P03372);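 further: potency for inhibiting coactivator peptide recruitment to the receptor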
T3 sequence (P03372 whole entry): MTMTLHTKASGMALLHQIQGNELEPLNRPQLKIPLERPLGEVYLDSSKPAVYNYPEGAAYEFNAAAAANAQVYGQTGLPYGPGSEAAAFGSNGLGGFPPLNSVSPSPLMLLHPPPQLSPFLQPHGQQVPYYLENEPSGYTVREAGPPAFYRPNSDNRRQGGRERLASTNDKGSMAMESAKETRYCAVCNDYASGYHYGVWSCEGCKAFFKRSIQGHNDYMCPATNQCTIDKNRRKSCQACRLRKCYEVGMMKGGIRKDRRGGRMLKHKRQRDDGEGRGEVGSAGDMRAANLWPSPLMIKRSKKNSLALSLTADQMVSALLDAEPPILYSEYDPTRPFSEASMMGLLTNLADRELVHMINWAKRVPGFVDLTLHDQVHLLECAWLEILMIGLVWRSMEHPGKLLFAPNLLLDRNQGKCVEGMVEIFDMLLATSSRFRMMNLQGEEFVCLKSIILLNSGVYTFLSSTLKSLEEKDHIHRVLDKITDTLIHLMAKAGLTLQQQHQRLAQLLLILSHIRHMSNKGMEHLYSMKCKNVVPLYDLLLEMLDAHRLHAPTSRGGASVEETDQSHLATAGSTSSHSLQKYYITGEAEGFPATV

[9] = target: T4, Carboxy-terminal domain RNA polymerase II polypeptide A small phosphatase 1 (Homo sapiens, UniProt Q9GZU7); experiment: CTDSP1 inhibitors, concentration-response, biochemical, absorbance readout, ultra-high-throughput screen actives (AID 540297); format: functional
T4 sequence (Q9GZU7 whole entry): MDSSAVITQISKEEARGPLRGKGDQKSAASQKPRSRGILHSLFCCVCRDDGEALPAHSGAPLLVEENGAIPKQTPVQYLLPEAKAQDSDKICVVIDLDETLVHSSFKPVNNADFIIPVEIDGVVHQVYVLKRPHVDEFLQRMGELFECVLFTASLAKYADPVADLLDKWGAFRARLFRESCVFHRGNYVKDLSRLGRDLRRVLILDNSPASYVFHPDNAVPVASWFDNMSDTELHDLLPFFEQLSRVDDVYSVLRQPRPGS

[10] = THP-1 cell cytotoxicity, dose response, cytotoxicity control for non-replicating M. tuberculosis project (AID 489025); format: functional
[11] = Vero E6 cell cytotoxicity, dose response, cytotoxicity control for non-replicating M. tuberculosis project, secondary assay (AID 492998); format: functional, VeroE6; conditions: Vero C1008
cells [12] = format: functional
Streptokinase A = target: T5, Streptokinase A (Streptococcus pyogenes serotype M1, UniProt P10520); experiment: viability-normalized secreted streptokinase activity reduction – plasminogen activation absorbance, OD405, dose response (AID 1914); format: functional, Streptococcus pyogenes M1 GAS;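 further: secreted streptokinase activity via plasminogen activation per viability signal from cell pellet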
T5 sequence (P10520 whole entry): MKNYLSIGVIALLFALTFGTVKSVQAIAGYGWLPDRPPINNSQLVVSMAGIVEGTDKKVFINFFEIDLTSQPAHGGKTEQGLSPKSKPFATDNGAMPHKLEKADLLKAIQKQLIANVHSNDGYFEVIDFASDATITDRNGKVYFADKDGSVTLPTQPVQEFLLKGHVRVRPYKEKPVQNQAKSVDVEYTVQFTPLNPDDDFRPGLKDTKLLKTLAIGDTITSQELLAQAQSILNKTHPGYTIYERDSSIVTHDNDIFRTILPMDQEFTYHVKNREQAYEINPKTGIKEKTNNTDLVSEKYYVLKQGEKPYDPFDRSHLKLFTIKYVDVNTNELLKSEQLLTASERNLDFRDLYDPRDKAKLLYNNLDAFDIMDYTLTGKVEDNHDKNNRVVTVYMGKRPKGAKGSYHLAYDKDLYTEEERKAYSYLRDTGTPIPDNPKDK

[13] = tested on: Streptococcus sp. 'group A'; experiment: Streptococcus pyogenes SK(-)GAS viability under kanamycin – luminescence, BacTiterGlo, confirmation, counter-screen for streptokinase expression inhibitor project, dose response (AID 1900); format: functional, organism-based
Streptococcus = experiment: GAS UMAA2166 growth inhibition – luminescence, BacTiterGlo, counter-screen for streptokinase expression inhibitor project, dose response (AID 1915); format: functional, organism-based;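 further: potency for reduction of bacterial viability or growth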
[14] = HEK-293T viability loss after treatment – luminescence, T-cell screen hits, cytotoxicity control for TCR NF-kB inhibitor project, dose response (AID 489026); format: functional, cell-based;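 further: cells exposed to compound about 14 hours before the viability readout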
[15] = target: T6, Rac GTPase-activating protein 1 (Homo sapiens, UniProt Q9H0H5); experiment: blockers of MgcRacGAP-driven Rac1 GTP hydrolysis – biochemical, ADP Hunter fluorescence, primary and confirmatory, confirmation (AID 624330); format: functional
T6 sequence (Q9H0H5 whole entry): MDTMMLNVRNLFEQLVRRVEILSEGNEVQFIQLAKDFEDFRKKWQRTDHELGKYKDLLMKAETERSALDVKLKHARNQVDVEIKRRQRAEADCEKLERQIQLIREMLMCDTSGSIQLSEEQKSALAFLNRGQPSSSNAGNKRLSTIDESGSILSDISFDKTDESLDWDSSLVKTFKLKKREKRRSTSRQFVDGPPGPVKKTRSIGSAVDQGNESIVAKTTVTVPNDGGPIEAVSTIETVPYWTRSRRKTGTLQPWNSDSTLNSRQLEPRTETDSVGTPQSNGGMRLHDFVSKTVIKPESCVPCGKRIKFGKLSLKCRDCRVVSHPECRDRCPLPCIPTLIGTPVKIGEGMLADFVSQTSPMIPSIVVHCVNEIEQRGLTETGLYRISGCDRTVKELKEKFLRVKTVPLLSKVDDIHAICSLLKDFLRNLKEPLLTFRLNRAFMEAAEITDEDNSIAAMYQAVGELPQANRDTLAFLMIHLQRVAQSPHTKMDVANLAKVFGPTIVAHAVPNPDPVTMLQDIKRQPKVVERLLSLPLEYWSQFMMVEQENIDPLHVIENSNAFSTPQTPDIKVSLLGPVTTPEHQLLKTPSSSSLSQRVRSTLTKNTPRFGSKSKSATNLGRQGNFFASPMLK

## Clc1cccc(COn2c(-c3ccc(Cl)cc3Cl)nc3ncccc32)c1
[1]
  EC50: 5.96 µM (active)
[2]
  CC50: 14.4 µM (active)

## CCOC(=O)c1sc2c(c1C)c(=O)n(Cc1ccccc1)c(=O)n2CCN(C)C
[3]
  EC50: < 0.1 µM (active)
Cells [4]
  EC50: 0.062 µM (active)
[5]
  EC50: > 60 µM (not active)

## Cc1cc(-c2nnc(S)n2-c2ccc(F)cc2)nn1C
[6]
  IC50: > 100 µM (inactive)
[7]
  IC50: 16.2 µM (active)

## CCOc1cccc(CNCCO)c1OCc1ccc(Cl)cc1
[1]
  EC50: 1.88 µM (active)

## Cc1cc(O)nc(SCC(=O)C23CC4CC(CC(C4)C2)C3)c1C#N
[8]
  IC50: > 100 µM (active)

## Nc1c(C(=O)Nc2ccc(Br)cc2)sc2nc(-c3ccco3)ccc12
SUMO-activating enzyme
  IC50: 22.8 µM (active)

## Cc1c(Cc2ccccc2)c(=O)oc2c(C)c(OCC(=O)N3CCC(C(=O)O)CC3)ccc12
Trypsin
  AC50: 9.51 µM (active)
CAAX prenyl protease 2
  AC50: 10.7 µM (active)

## O=C(Nc1ccc2nn(-c3ccccc3)nc2c1)c1ccc(Br)o1
Estrogen receptor
  IC50: > 50 µM (not active)
[9]
  IC50: 3.62 µM (active)

## COC(=O)C1=C(C)N(Cc2ccccc2)C(=S)N[C@H]1c1ccccc1
[1]
  EC50: 5.96 µM (active)

## O=C(CN1C(=O)C2C3CCC(C3)C2C1=O)Oc1ccc2ccccc2c1 (centres undefined)
[8]
  IC50: > 100 µM (active)

## COc1ccc(-c2nc(CC(=O)O)cs2)cc1OC
Trypsin
  AC50: 6.53 µM (active)
CAAX prenyl protease 2
  AC50: 29.7 µM (active)

## Cc1ccc(CNC(=O)c2ccc([N+](=O)[O-])o2)cc1
[10]
  CC50: 25.5 µM (active)
[11]
  CC50: 5.6 µM (active)
Cells [12]
  IC50: 0.16 µM (active)
Streptokinase A
  EC50: 8.63 µM (active)
[13]
  EC50: 2.42 µM (active)
Streptococcus
  EC50: 32.1 µM (active)

## CCOc1ccc(NC2C=CS(=O)(=O)C2)cc1 (centres undefined)
[8]
  IC50: > 100 µM (active)

## CCOc1ccc(S(=O)(=O)NCc2ccccn2)cc1NC(=O)c1ccccc1
[14]
  IC50: > 80 µM (inactive)

## CCOC(=O)c1ccccc1NS(=O)(=O)c1ccc(OCC)cc1
[14]
  IC50: > 80 µM (inactive)

## COc1ccc2sc(N(CCCN(C)C)C(=O)c3ccc(S(=O)(=O)N(C)C4CCCCC4)cc3)nc2c1
[3]
  EC50: < 0.1 µM (active)
Cells [4]
  EC50: 0.393 µM (active)
[5]
  EC50: > 60 µM (not active)

## COC(=O)Cc1ccc(NC(=O)c2ccc(Br)o2)cc1
[8]
  IC50: > 100 µM (active)

## CC(NC(=O)OC(C)(C)C)C(=O)Oc1ccc2ccc(=O)oc2c1 (centres undefined)
SUMO-activating enzyme
  IC50: > 100 µM (inactive)

## C=CCn1c(-c2ccc([N+](=O)[O-])cc2)n[nH]c1=S
[6]
  IC50: > 100 µM (inactive)
[7]
  IC50: 4.51 µM (active)

## CC(OC(=O)CNC(=O)c1ccccc1F)C(=O)Nc1nc(-c2ccccc2)cs1 (centres undefined)
[1]
  EC50: 1.5 µM (active)

## CCN(CC)c1ccc(CN(C)CCc2ccc(OC)c(OC)c2)cc1
[3]
  EC50: < 0.1 µM (active)
Cells [4]
  EC50: < 0.004 µM (active)
[5]
  EC50: > 60 µM (not active)

## CC(C)(C)C1CCc2c(sc(NC(=O)CSc3nnc(-c4ccccc4)o3)c2C#N)C1 (centres undefined)
[8]
  IC50: > 100 µM (active)

## Cc1cc(-c2nnc(S)n2/N=C/c2sccc2C)[nH]n1
[6]
  IC50: > 100 µM (inactive)
[15]
  IC50: 74.9 µM (active)
[7]
  IC50: 2.44 µM (active)

## Sc1nnc(COc2ccccc2)n1/N=C/c1ccco1
[6]
  IC50: > 100 µM (inactive)
[7]
  IC50: 3.38 µM (active)
